Measurements published in patent US8518952B2, “6 substituted 2-heterocyclylamino pyrazine compounds as CHK-1 inhibitors” (Pfizer Inc., priority 2008, dated 2013).

What was measured:
CHK1 (kinase domain) = target: T1, CHK1 (kinase domain) (Homo sapiens, UniProt O14757); assay: CHK1 Ki determination, spectrophotometric coupled (pyruvate kinase/lactate dehydrogenase) assay; format: biochemical; conditions: CHK-1 kinase domain; for Ki: 150 uM ATP, 125 uM Syntide 2
T1 construct: a solution containing 1 nM of CHK1 (kinase domain)
T1 sequence (O14757 9-265 limits assumed): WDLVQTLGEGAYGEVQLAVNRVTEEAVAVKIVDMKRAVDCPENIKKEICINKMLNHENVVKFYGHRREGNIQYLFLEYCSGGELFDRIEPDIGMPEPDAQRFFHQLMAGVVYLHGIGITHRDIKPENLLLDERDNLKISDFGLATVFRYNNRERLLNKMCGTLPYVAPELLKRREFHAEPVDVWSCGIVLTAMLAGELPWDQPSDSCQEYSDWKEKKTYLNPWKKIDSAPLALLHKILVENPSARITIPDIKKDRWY
Outline: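 Ki values, or % inhibition where no Ki was obtained, come from a tight-binding fit that uses active enzyme concentration and the ATP Km. Rates were followed as NADH loss at 340 nm, with ADP production coupled via pyruvate kinase and lactate dehydrogenase. Reactions with ATP (150 uM) and Syntide 2 (125 uM) were started after the CHK1 kinase domain had stood with inhibitor for 15 min.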

Mia Paca-2 cells = assay: Histone H3 (Ser10) phosphorylation ELISA, abrogation of camptothecin-induced G2 arrest (CHK-1 cellular assay); format: cell-based; conditions: Homo sapiens, camptothecin 8 hrs, then compound with nocodozole 16 hours
Description: The Histone H3 phosphorylation ELISA assay detects cells entering mitosis and represents the primary in vitro cell-based assay used to measure the cellular potency of compounds in abrogating the G2 check point induced by DNA damage in HeLa cells or MiaPaCa cells. The candidate substances were assayed for potency in their ability to inhibit camptothecin-induced G2 arrest, as measured by an increase in Histone H3 phosphorylation on Ser10, a marker of entry into mitosis.
The PathScan Phospho-Histone H3 (Ser10) Sandwich ELISA kit was used (Cell Signaling, #7155) and the assay was performed according to manufacturer recommendations. Tissue culture plates were seeded with HeLa cells or MiaPaCa Cells and allowed to attach overnight. The cells were then treated with camptothecin to induce DNA damage for 8 hrs. Candidate substances or diluent were then added in the presence of nocodozole for 16 hours. Cells were then lysed with buffer from Assay Designs (#80-1114) supplemented with protease inhibitors and frozen overnight. The fresh whole cell lysates were then thawed and added to the ELISA plate with shaking for 3 hours. Between all subsequent steps plates were washed 4 times with PBST. Biotinylated phospho Histone H3 (ser10) detection antibody was added for 1 hour, followed by addition of horseradish peroxidase-linked streptavidin secondary antibody for 1 hour. Color development of the antibody was performed with addition of TMB substrate and incubation for 2 minutes on a plate shaker. Stop solution was added and plates were read with absorbance at 450 nm on a spectrophotometer. EC50 values were calculated by sigmoid curve fitting using a four-parameter analysis.
Under the “Ki” column, data entries in the format of “%” are percent inhibition data where no Ki data is available. Data entry under the “EC50” column with an * are data obtained using Mia Paca-2 cells rather than HeLa cells. Data is not available where noted as n/a.

[1] = Mia Paca-2 cells (entries marked *)
[2] = MIA PaCa-2, Mia Paca-2 cells (entries marked *)

Row | Structure (SMILES) | Ki (CHK1 (kinase domain)) | EC50 (Mia Paca-2 cells; [1]) | EC50 (Mia Paca-2 cells; [2]) | percent inhibition (where no Ki data is available) (CHK1 (kinase domain); inhibitor concentration not given)
1 | C[C@@H]1CNC[C@@H]1Nc1cncc(-c2cnc3cc(Cl)ccn23)n1 [Example 129, 6-(7-chloroimidazo[1,2-a]pyridin-3-yl)-N-[(3R,4R)-4-methylpyrrolidin-3-yl]pyrazin-2-amine] | 0.929 nM | 10.8 nM |  | 
2 | COc1ccc2c(-c3cncc(N[C@@H]4CCCNC4)n3)cnn2c1 [Example 33, 6-(6-methoxypyrazolo[1,5-a]pyridin-3-yl)-N-[(3R)-piperidin-3-yl]pyrazin-2-amine] | 1 nM | 7.27 nM |  | 
3 | CCOc1cc2c(cn1)ncn2-c1cncc(N[C@@H]2CCCNC2)n1 [Example 257, 6-(6-ethoxy-1H-imidazo[4,5-c]pyridin-1-yl)-N-[(3R)-piperidin-3-yl]pyrazin-2-amine] | 12.6 nM | 166 nM |  | 
4 | COc1ccc2ncc(-c3cncc(N[C@@H]4CCCNC4)n3)n2c1 [Example 7, 6-(6-Methoxyimidazo[1,2-a]pyridin-3-yl)-N-[(3R)-piperidin-3-yl]pyrazin-2-amine] | 1.65 nM | 16.7 nM |  | 
5 | c1ccn2c(-c3cncc(N[C@H]4CNC[C@H]4C4CC4)n3)cnc2c1 [Example 197, N-[(3R,4R)-4-cyclopropylpyrrolidin-3-yl]-6-(imidazo[1,2-a]pyridin-3-yl)pyrazin-2-amine] | 3.05 nM | 4.82 nM |  | 
6 | C[C@@H]1C[C@@H](Nc2cncc(-c3cnc4ccccn34)n2)CN1 [Example 144, 6-imidazo[1,2-a]pyridin-3-yl-N-[(3R,5R)-5-methylpyrrolidin-3-yl]pyrazin-2-amine] | 3.18 nM | 167 nM |  | 
7 | Clc1cc2c(cn1)ncn2-c1cncc(N[C@@H]2CCNC2)n1 [Example 271, 6-(6-chloro-1H-imidazo[4,5-c]pyridin-1-yl)-N-[(3R)-pyrrolidin-3-yl]pyrazin-2-amine] | 118 nM | 4770 nM |  | 
8 | Fc1cccn2ncc(-c3cncc(N[C@@H]4CCCNC4)n3)c12 [Example 199, 6-(4-fluoropyrazolo[1,5-a]pyridin-3-yl)-N-[(3R)-piperidin-3-yl]pyrazin-2-amine] | 7.82 nM | 106 nM |  | 
9 | N#Cc1ccc2c(-c3cncc(N[C@@H]4CCCNC4)n3)cnn2c1 [Example 21, 3-{6-[(3R)-piperidin-3-ylamino]pyrazin-2-yl}pyrazolo[1,5-a]pyridine-6-carbonitrile] | 6.02 nM | 68.8 nM |  | 
10 | CCOc1ccc2ncn(-c3cncc(N[C@H]4CN[C@H](COC)C4)n3)c2c1 [Example 268, 6-(6-ethoxy-1H-benzimidazol-1-yl)-N-[(3R,5S)-5-(methoxymethyl)pyrrolidin-3-yl]pyrazin-2-amine] | 65.8 nM | 1480 nM |  | 
11 | CCOC[C@@H]1C[C@@H](Nc2cncc(-c3cnc4cc(OC)ccn34)n2)CN1 [Example 243, N-[(3R,5S)-5-(ethoxymethyl)pyrrolidin-3-yl]-6-(7-methoxyimidazo[1,2-a]pyridin-3-yl)pyrazin-2-amine] | 24.8 nM | 172 nM |  | 
12 | CC(C)c1cn2c(-c3cncc(N[C@@H]4CC[C@@H](C)NC4)n3)cnc2s1 [Example 110, 6-(2-isopropylimidazo[2,1-b][1,3]thiazol-5-yl)-N-[(3R,6R)-6-methylpiperidin-3-yl]pyrazin-2-amine] | 17.3 nM | 589 nM |  | 
13 | Cc1ccn2c(-c3cncc(N[C@H]4CN[C@H](COC(C)C)C4)n3)cnc2c1 [Example 240, 6-(7-methylimidazo[1,2-a]pyridin-3-yl)-N-{(3R,5S)-5-[(propan-2-yloxy)methyl]pyrrolidin-3-yl}pyrazin-2-amine] | 61.6 nM | 171 nM |  | 
14 | COc1ccc2ncn(-c3cncc(N[C@@H]4CCCNC4)n3)c2c1 [Example 142, 6-(6-methoxy-1H-benzimidazol-1-yl)-N-[(3R)-piperidin-3-yl]pyrazin-2-amine] | 1.49 nM | 125 nM |  | 
15 | C[C@H]1NCCC[C@H]1Nc1cncc(-c2cnc3ccc(Cl)cn23)n1 [Example 226, 6-(6-chloroimidazo[1,2-a]pyridin-3-yl)-N-[(2R,3R)-2-methylpiperidin-3-yl]pyrazin-2-amine] | 4.6 nM |  | 7.17 nM | 
16 | CC(CO)(CO)COc1ccc2c(c1)ncn2-c1cncc(N[C@@H]2CCCNC2)n1 [Example 256, 2-methyl-2-{[(1-{6-[(3R)-piperidin-3-ylamino]pyrazin-2-yl}-1H-benzimidazol-5-yl)oxy]methyl}propane-1,3-diol] | 1.26 nM | 53.7 nM |  | 
17 | COc1ccn2c(-c3cncc(N[C@H]4CN[C@H](COC(C)C)C4)n3)cnc2c1 [Example 242, 6-(7-methoxyimidazo[1,2-a]pyridin-3-yl)-N-{(3R,5S)-5-[(propan-2-yloxy)methyl]pyrrolidin-3-yl}pyrazin-2-amine] | 28 nM | 129 nM |  | 
18 | N#Cc1ncc(N[C@@H]2CCCNC2)nc1-c1cnc2ccccn12 [Example 20, 3-(imidazo[1,2-a]pyridin-3-yl)-5-[(3R)-piperidin-3-ylamino]pyrazine-2-carbonitrile] | 930 nM |  | 10000 nM | 
19 | COC[C@@H]1C[C@@H](Nc2cncc(-c3cnc4cc(C#N)ccn34)n2)CN1 [Example 188, 3-(6-{[(3R,5S)-5-(methoxymethyl)pyrrolidin-3-yl]amino}pyrazin-2-yl)imidazo[1,2-a]pyridine-7-carbonitrile] | 57.8 nM | 663 nM |  | 
20 | C[C@@H]1CNC[C@@H]1Nc1cncc(-c2cnc3ccc(C(C)(C)O)cn23)n1 [Example 14, 2-[3-(6-{[(3R,4R)-4-methylpyrrolidin-3-yl]amino}pyrazin-2-yl)imidazo[1,2-a]pyridin-6-yl]propan-2-ol] | 33.6 nM | 4210 nM |  | 
21 | Cc1cn2c(-c3cncc(N[C@@H]4CCCN[C@@H]4C)n3)cnc2s1 [Example 161, 6-(2-methylimidazo[2,1-b][1,3]thiazol-5-yl)-N-[(2R,3R)-2-methylpiperidin-3-yl]pyrazin-2-amine] | 1.47 nM | 5.66 nM |  | 
22 | Nc1ccc2ncc(-c3cncc(N[C@@H]4CCCNC4)n3)n2c1 [Example 233, 3-{6-[(3R)-piperidin-3-ylamino]pyrazin-2-yl}imidazo[1,2-a]pyridin-6-amine] | 3.4 nM |  | 75.5 nM | 
23 | Clc1cc2c(cn1)ncn2-c1cncc(N[C@@H]2CCCNC2)n1 [Example 255, 6-(6-chloro-1H-imidazo[4,5-c]pyridin-1-yl)-N-[(3R)-piperidin-3-yl]pyrazin-2-amine] | 34.5 nM | 597 nM |  | 
24 | C[C@@H]1CNC[C@@H]1Nc1cncc(-c2cnn3cccc(F)c23)n1 [Example 200, 6-(4-fluoropyrazolo[1,5-a]pyridin-3-yl)-N-[(3R,4R)-4-methylpyrrolidin-3-yl]pyrazin-2-amine] |  | 127 nM |  | 26.1%^
25 | Cc1nn2c(-c3cncc(N[C@@H]4CCCNC4)n3)cnc2s1 [Example 120, 6-(2-methylimidazo[2,1-b][1,3,4]thiadiazol-5-yl)-N-[(3R)-piperidin-3-yl]pyrazin-2-amine] | 34.3 nM | 686 nM |  | 
26 | Oc1ccn2c(-c3cncc(N[C@@H]4CCCNC4)n3)cnc2c1 [Example 137, 3-{6-[(3R)-piperidin-3-ylamino]pyrazin-2-yl}imidazo[1,2-a]pyridin-7-ol] | 2.4 nM |  | 256 nM | 
27 | c1ncc(-n2cnc3cnc(N4CCOCC4)cc32)nc1N[C@@H]1CCCNC1 [Example 272, 6-[6-(morpholin-4-yl)-1H-imidazo[4,5-c]pyridin-1-yl]-N-[(3R)-piperidin-3-yl]pyrazin-2-amine] | 40.8 nM | 2010 nM |  | 
